One may read the IC50 as the point on the concentration scale where inhibition reaches its midpoint. As usually defined, the melting point is the temperature of the solid-liquid transition.

This is an account of results in US20020028938A1, “Prostaglandin endoperoxide H synthase biosynthesis inhibitors” (priority 1997, published 2002).

Each structure is given as a SMILES string.

Data set [1] deals with T1, recombinant human Cox-1 (r-hu Cox1) (Homo sapiens, UniProt P23219).
T1 construct: made in house; host or cells: baculovirus/Sf9 insect cells (microsomes)
Nature of the data set: Recombinant human PGHS-1 enzyme assay (RHUCX1). It counts as biochemical. To be noted: for inhibition at 100 µM: read-out: RHUCX1 % Inh. at Dose. Put shortly: (§1)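 Recombinant enzyme reaction ran 2.5 minutes at room temperature, then was quenched with HCl and neutralized with NaOH. PGE2 formed with and without drug was quantified by EIA against standards in the same milieu. Percent inhibition versus control mean; IC50 by linear regression.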

Data set [2] addresses T2, recombinant human Cox-2 (r-hu Cox-2) (Homo sapiens, UniProt P35354).
T2 construct: made in house; host or cells: baculovirus/Sf9 insect cells (microsomes)
T2 sequence (P35354 18-604): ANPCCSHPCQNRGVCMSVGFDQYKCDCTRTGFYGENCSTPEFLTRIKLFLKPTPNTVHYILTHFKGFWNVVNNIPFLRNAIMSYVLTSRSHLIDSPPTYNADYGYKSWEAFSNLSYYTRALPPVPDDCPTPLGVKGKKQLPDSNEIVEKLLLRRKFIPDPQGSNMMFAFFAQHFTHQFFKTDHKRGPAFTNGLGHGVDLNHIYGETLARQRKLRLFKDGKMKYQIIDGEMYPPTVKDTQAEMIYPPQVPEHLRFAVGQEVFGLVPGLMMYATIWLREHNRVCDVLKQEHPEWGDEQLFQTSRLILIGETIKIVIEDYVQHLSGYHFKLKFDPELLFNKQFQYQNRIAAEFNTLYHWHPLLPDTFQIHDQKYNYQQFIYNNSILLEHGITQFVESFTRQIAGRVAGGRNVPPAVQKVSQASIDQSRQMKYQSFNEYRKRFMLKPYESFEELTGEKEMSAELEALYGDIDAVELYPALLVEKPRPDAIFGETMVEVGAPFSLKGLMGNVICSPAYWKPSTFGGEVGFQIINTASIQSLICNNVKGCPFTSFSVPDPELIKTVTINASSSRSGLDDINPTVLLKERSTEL
Nature of the data set: Recombinant human PGHS-2 enzyme assay (RHUCX2). It counts as biochemical. To be noted: for IC50: read-out: RHUCX2 IC50 (parenthetical value); for inhibition at 0.01 µM / inhibition at 0.1 µM / inhibition at 1 µM: read-out: RHUCX2 % Inh. at Dose. Put shortly: as §1

Data set [3] concerns air pouch prostaglandin biosynthesis (Cox-2). Kind of data set: Carrageenan induced air pouch prostaglandin biosynthesis model (CAP). It counts as in vivo, rat. The settings on record: 3 mpk, rat; for inhibition in vivo at 3 mg/kg: 4 h, read-out: CAP % Inhib. @ 3 mpk. Here is the method: To compare the mean responses of the treatment groups, analysis of variance was applied. Percent inhibition values were determined by comparing the individual treatment mean values to the mean of the control group. Linear regression was used to estimate IC50's/ED50's in appropriate assays.
Carrageenan induced air pouch prostaglandin biosynthesis model (CAP) Air pouches are formed in the backs of male Sprague Dawley rats by injecting 20 mL of sterile air on day 0. Three days later the pouch was reinflated with an additional 10 mL of sterile air. On day 7, 1 mL of saline containing 0.2 % lambda carrageenan (Sigma Chemical Co.) is injected into the pouch to induce the inflammatory reaction that is characterized by the release of prostaglandins. Test compounds are dosed at 0.1 to 10 mg/kg 30 minutes prior to carrageenan. Four hours after the carrageenan injection the pouch is lavaged and levels of prostaglandins are determined by enzyme immuno-assay using commercially available kits. […] Values for Cox-2 inhibition that are parenthetical indicate ED50 values.

T1 sequence (P23219 24-599): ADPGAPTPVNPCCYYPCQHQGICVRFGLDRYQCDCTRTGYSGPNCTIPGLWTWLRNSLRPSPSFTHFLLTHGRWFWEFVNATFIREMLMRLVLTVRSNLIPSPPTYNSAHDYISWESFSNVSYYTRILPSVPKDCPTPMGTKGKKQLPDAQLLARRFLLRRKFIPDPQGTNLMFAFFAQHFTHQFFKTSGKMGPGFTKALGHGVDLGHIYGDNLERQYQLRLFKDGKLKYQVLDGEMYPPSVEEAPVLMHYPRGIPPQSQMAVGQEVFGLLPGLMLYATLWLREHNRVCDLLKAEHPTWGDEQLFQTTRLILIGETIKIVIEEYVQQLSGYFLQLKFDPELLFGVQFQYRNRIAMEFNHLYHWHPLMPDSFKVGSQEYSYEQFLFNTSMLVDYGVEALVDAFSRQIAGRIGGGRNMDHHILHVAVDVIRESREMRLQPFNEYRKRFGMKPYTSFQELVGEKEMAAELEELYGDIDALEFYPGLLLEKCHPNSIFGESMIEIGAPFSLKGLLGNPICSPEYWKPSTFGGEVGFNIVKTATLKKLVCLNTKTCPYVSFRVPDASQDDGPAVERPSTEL

In turn, `CC(C)CCc1c(-c2ccc(S(C)(=O)=O)cc2)cnn(-c2ccc(F)c(Cl)c2)c1=O` [Example 257, 2-(3-Chloro-4-fluorophenyl)-4-(3-methylbutyl)-5-[4-(methylsulfonyl)phenyl]-3(2H)-pyridazinone] displayed a melting point of 55 to 58 °C. In addition, the inhibition at 100 µM in data set [1] stood at 0%. The IC50 in data set [2] worked out at 40 nM. For the same compound, the inhibition in vivo at 3 mg/kg in data set [3] was 60%.
As to `CC(C)COc1c(-c2ccc(S(C)(=O)=O)c(F)c2)cnn(-c2ccc(F)c(Cl)c2)c1=O` [Example 205, 2-(3-Chloro-4-fluorophenyl)-4-(2-methylpropoxy)-5-[3-fluoro-4-(methylsulfonyl)phenyl]-3(2H)-pyridazinone], the melting point lay in the range of 142 to 144 °C. For the same compound, in data set [3], the inhibition in vivo at 3 mg/kg is 54%.
`COC(C)CCOc1c(-c2ccc(S(C)(=O)=O)cc2)cnn(-c2ccc(F)c(F)c2)c1=O` (centres unmarked) [Example 353, 2-(3,4-Difluorophenyl)-4-[3-(methoxy)butoxy]-5-[4-(methylsulfonyl)phenyl]-3(2H)-pyridazinone]: the melting point lay in the range of 99 to 101 °C. The inhibition at 100 µM in data set [1] came out at 6%. The half-maximal inhibitory concentration (IC50) in data set [2] is 826 nM. The inhibition in vivo at 3 mg/kg in data set [3] was 0%.
The compound `CC(C)COc1c(-c2ccc(S(C)(=O)=O)cc2)cnn(-c2ccc(F)c(F)c2)c1=O` [Example 346, 2-(3,4-Difluorophenyl)-4-(2-methylpropoxy)-5-[4-(methylsulfonyl)phenyl]-3(2H)-pyridazinone] showed a melting point of 116 to 117 °C. For the same compound, in data set [1], the inhibition at 100 µM was determined as 14%. In addition, the inhibition at 0.01 µM in data set [2] came out at 48%. Also, in data set [2] (0.1 μM), the inhibition at 0.1 µM amounted to 76%. Moreover, the inhibition at 1 µM in data set [2] (1 μM) is 94%. Moreover, the inhibition in vivo at 3 mg/kg in data set [3] was 49.5%.
`CC(C)CCc1c(-c2ccc(S(C)(=O)=O)cc2)cnn(-c2ccc(F)cc2)c1=O` [Example 378]: the “CAP % Inhib. @ 3 mpk” value in data set [3] was 59%.
With `CC(C)CSc1c(-c2ccc(S(C)(=O)=O)cc2)cnn(-c2cccc(Cl)c2)c1=O` [Example 361, 2-(3-Chlorophenyl)-4-[2-(methylpropyl)thiol]-5-[4-(methylsulfonyl)phenyl]-3(2H)-pyridazinone], in data set [1], the inhibition at 100 µM turned out to be 3%. For the same compound, the IC50 in data set [2] is 11 nM. The inhibition in vivo at 3 mg/kg in data set [3] is 65%.
`C=C(C)CCOc1c(-c2ccc(S(C)(=O)=O)cc2)cnn(-c2cccc(Cl)c2)c1=O` [Example 427, 2-(3-Chlorophenyl)-4-(3-methyl-3-butenoxy)-5-[4-(methylsulfonyl)phenyl]-3(2H)-pyridazinone]: the melting point lay within 110 to 112 °C. The inhibition in vivo at 3 mg/kg in data set [3] stood at 78%.
`CCC(C)CCOc1c(-c2ccc(S(C)(=O)=O)cc2)cnn(-c2ccc(F)c(F)c2)c1=O` (centres unmarked) [Example 351, 2-(3,4-Difluorophenyl)-4-(3-methylpentyloxy)-5-[4-(methylsulfonyl)phenyl]-3(2H)-pyridazinone] yielded a melting point of 100 to 102 °C. In addition, the inhibition at 100 µM in data set [1] stood at 3%. Moreover, in data set [2], the inhibition at 0.01 µM was found to be 42%. Moreover, in data set [2] (0.1 μM), the inhibition at 0.1 µM stood at 63%. For the same compound, the inhibition at 1 µM in data set [2] (1 μM) turned out to be 91%. The inhibition in vivo at 3 mg/kg in data set [3] was determined as 0%.
Regarding `Cc1cc(-c2c(-c3ccc(S(N)(=O)=O)cc3)cnn(-c3ccc(F)cc3)c2=O)ccc1F` [Example 390], the “RHUCX1 % Inh. at Dose (μM)” value is reported as 45 @ 1% in data set [1] (1 μM) and 88 @ 10% in data set [1] (10 μM). Besides, the “RHUCX2 % Inh. at Dose (μM)” value in data set [2] (0.1 μM) was 60 @ 0.1%; in data set [2] (1 μM), 72 @ 1%; in data set [2] (10 μM) it was 99 @ 10%. Also, in data set [3], the “CAP % Inhib. @ 3 mpk” value was determined as 60%.
Turning to `Cc1cc(-c2c(-c3ccc(S(N)(=O)=O)cc3)cnn(-c3cccc(Cl)c3)c2=O)ccc1F` [Example 391, 2-(3-Chlorophenyl)-4-(4-fluoro-3-methylphenyl)-5-[4-(aminosulfonpl)phenyl]-3(2h)-pyridazinone], the “CAP % Inhib. @ 3 mpk” value in data set [3] is recorded as 61%.
